From US20060211705A1, “'N-(2-chloro-6-methylphenyl)-2-[[6-[4-(2-hydroxyethyl)-1-piperazinyl]-2-methyl-4-pyrimidinyl]amino]-5-thiazolecarboxamides metabolites” (priority 2005, published 2006)

Experiment: In vivo metabolism of compound of formula I in bile duct cannulated rats by LC/UV/MSn
Parameters: species or system rat
Conditions: BDC rats; for Relative abundance in gastrointestinal samples from rats dosed orally: 10 mg/kg oral, GIT at 9 hour; for Relative abundance in rat urine / Relative abundance in rat bile: 10 mg/kg; for Relative abundance in rat urine: urine over 9 hour; for Relative abundance in rat bile: bile over 9 hour
Procedure: The in vivo metabolism of compound of formula I was investigated in bile duct cannulated rats (n=2), following a single dose of 10 mg/kg either intravenously (IV) as a 10 minute infusion or orally by gavage. The vehicle used was 50 mM sodium acetate buffer, pH 4.6. The rats were fasted overnight and for the duration of the study. Urine and bile were collected over a 9 hour period. The gastrointestinal tract (GIT) and feces were collected at the end of the 9 hour study period. GIT and feces were homogenized with 3 volumes of water and 3 volumes of acetonitrile per volume of GIT/feces. Blood samples were collected at 15, 30 minutes, 1, 2, 4, 6 and 9 hours after intravenous and oral dosing in tubes containing EDTA and plasma was prepared by centrifugation. Samples were stored at −20° C. until analysis.
Plasma samples were pooled across collection intervals and treated with two volumes of acetonitrile. After centrifugation, the supernatent was removed and evaporated to dryness. The residues were then redissolved in 300 μl of methanol:water (1:1). Bile and urine samples from the BDC rat study were pooled across collection intervals. Bile samples were purified by sep-pak purification on C8 cartridges. The samples were evaporated and the residue was redissolved in 300 μl of methanol:water (1:1). Urine samples were diluted one to one with methanol and analyzed without further purification. All samples were analyzed by LC/UV/MS^n.
The HPLC system consisted of Waters alliance 2690 separation module. The column used was a Phenomenex Curosil PFP, 4.6 mm×150 mm, 5 μ particles with a flow rate of 1.0 mL/min. The mobile phase consisted of 95/5 v/v Water/Methanol containing 0.1% formic acid (Solvent A) and Methanol (Solvent B). The initial mobile phase composition was 20% Solvent B. After sample injection, this composition was held for 0.5 minute at initial conditions then ramped to 80% solvent B up to 24.5 min, and ramped to 100% solvent B up to 28 minutes. The mobile phase was then returned to initial conditions and the column re-equilibrated for 5 minutes. Total analysis time was 33 minutes.
The HPLC was interfaced to a Finnigan's Photo Diode Array Detector (PDA: UV6000) in tandem with Finnigan Deca XP ion trap mass spectrometer. Deca XP mass spectrometer was equipped with an Electrospray ionization source (ESI) interface. The source was operated in a positive ion mode with capillary temperature of 350° C. and source voltage 5.0 kV. The UV profile was extracted at […] of 254 nm. UHP (Ultra High Purity) nitrogen was used as sheath and auxiliary gas. The normalized collision energy was set at 50% and the isolation width was 3.0 amu. Multiple MS experiments were performed in a single chromatographic run with the following data dependent settings: […]

Relative abundance in gastrointestinal samples from rats dosed orally	Relative abundance in rat plasma (10 mg/kg IV or oral, pooled plasma, LC/UV/MSn)	Relative abundance in rat urine	Relative abundance in rat bile	Compound
trace amounts	–	–	–	Cc1nc(Nc2ncc(C(=O)Nc3c(C)cccc3Cl)s2)cc(N2CCNCC2)n1 [M4 (II)]
major drug related peak	major peak	trace amounts	–	Cc1nc(Nc2ncc(C(=O)Nc3c(C)cccc3Cl)s2)cc(N2CCN(CCO)CC2)n1 [Parent (I), N-(2-Chloro-6-methylphenyl)-2-[[6-[4-(2-hydroxyethyl)-1-piperazinyl]-2-methyl-4-pyrimidinyl]amino]-5-thiazolecarboxamide]
–	–	major metabolite	major metabolites	Cc1nc(Nc2ncc(C(=O)Nc3c(C)cccc3Cl)s2)cc(N2CC[N+]([O-])(CCO)CC2)n1 [M5 (III)]
trace amounts	–	–	major metabolites	Cc1nc(Nc2ncc(C(=O)Nc3c(C)cccc3Cl)s2)cc(N2CCN(CC(=O)O)CC2)n1 [M6 (IV), 2-(4-(6-(5-((2-Chloro-6-methylphenyl)carbamoyl)thiazol-2-ylamino)-2-methylpyrimidin-4-yl)piperazin-1-yl)acetic acid]
